The compounds below were run against Trehalose-binding lipoprotein LpqY (Mycobacterium tuberculosis) (UniProt P9WGU9) (assay: Binding affinity to RED-NHS labelled Mycobacterium tuberculosis LpqY expressed in Escherichia coli BL21 (DE3) assessed as dissociation constant incubated for 10 mins by Microscale thermophoresis analysis). Conditions: DDE = dose-dependent effect.
Chain of Trehalose-binding lipoprotein LpqY (Mycobacterium tuberculosis) (P9WGU9 whole entry): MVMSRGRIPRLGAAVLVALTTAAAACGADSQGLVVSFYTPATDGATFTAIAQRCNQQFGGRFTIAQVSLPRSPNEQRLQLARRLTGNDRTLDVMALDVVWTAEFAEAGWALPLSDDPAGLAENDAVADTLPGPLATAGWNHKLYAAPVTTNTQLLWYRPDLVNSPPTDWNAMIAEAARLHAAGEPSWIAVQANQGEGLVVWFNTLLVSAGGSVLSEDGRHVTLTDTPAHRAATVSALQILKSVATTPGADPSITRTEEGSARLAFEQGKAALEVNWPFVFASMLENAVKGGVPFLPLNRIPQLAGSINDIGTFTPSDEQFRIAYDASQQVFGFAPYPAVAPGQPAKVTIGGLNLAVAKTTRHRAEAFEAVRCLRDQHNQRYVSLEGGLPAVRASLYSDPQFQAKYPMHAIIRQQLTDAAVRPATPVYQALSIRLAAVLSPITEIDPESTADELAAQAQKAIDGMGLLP

Structure (SMILES)	Activity
COc1cc(NC(C)CCCN)c2ncccc2c1 (stereo not drawn)	Dde
Nc1cccnc1Nc1ccc(Cl)cc1	Dde
CNC(=O)c1nn(C)c2c1C(C)(C)Cc1cnc(Nc3ccc(N4CCN(C)CC4)cc3)nc1-2	Dde
